Calls of active or inactive are those of the source. No cut-off for these calls is given here.
What was measured:
[1] = system: HEL; assay: The compound was tested for cytotoxic concentration required to inhibit Hel cell growth by 50%; assay type: functional; details: Homo sapiens
[2] = system: Human alphaherpesvirus 3; assay: The compound was tested for its effective concentration required to reduce virus plaque formation by using TK (thymidine kinase -deficient) -Varicella-Zoster virus YS/R strain; assay type: functional, organism-based
[3] = The compound was tested for its minimal cytotoxic concentration required to alter microscopically detectable cell morphology; assay type: functional
[4] = system: Human alphaherpesvirus 3; assay: The compound was tested for its effective concentration required to reduce virus plaque formation by using TK (thymidine kinase -deficient)-Varicella-Zoster virus 07/1 strain; assay type: functional, organism-based
[5] = system: Human alphaherpesvirus 3; assay: The compound was tested for its effective concentration required to reduce virus plaque formation by using Varicella-Zoster virus OKA strain; assay type: functional, organism-based
[6] = system: Human alphaherpesvirus 3; assay: The compound was tested for its effective concentration required to reduce virus plaque formation by using Varicella-Zoster virus YS strain; assay type: functional, organism-based
[7] = system: Human alphaherpesvirus 1; assay: In vitro activity against Herpes simplex virus-1; Not active; assay type: functional, organism-based
[8] = system: Human immunodeficiency virus 1; assay: In vitro activity of compound against HIV-1; Not active; assay type: functional, organism-based
[9] = system: Cytomegalovirus; assay: In vitro activity against Cytomegalovirus virus; assay type: functional, organism-based
[10] = system: Human alphaherpesvirus 2; assay: In vitro activity against Herpes simplex virus-2; assay type: functional, organism-based
[11] = system: Cytomegalovirus; assay: Compound was tested (in vitro) against Cytomegalovirus virus or HIV-1; Not active; assay type: functional, organism-based
[12] = system: Human alphaherpesvirus 2; assay: Compound was tested (in vitro) against Herpes simplex virus-2; Not active; assay type: functional, organism-based
[13] = system: Human alphaherpesvirus 3; assay: The compound was tested for its effective concentration required to reduce virus plaque formation by using TK- (thymidine kinase -deficient)-Varicella-Zoster virus 07/1 strain; assay type: functional, organism-based
[14] = system: Cytomegalovirus; assay: Compound was tested (in vitro) against Cytomegalovirus virus or HIV-1; assay type: functional, organism-based
[15] = system: Human alphaherpesvirus 2; assay: Compound was tested (in vitro) against Herpes simplex virus-2; assay type: functional, organism-based

Compound | CC50 [1] [µM] | EC50 [2] [µM] | MCC [3] [µM] | EC50 [4] [µM] | EC50 [5] [µM] | EC50 [6] [µM] | Activity [7] | Activity [8] | Activity [9] | Activity [10] | Activity [11] | Activity [12] | EC50 [13] [µM] | Activity [14] | Activity [15]
CCCCCCCCCCc1cc2cn([C@H]3C[C@H](O)[C@@H](CO)O3)c(=O)nc2o1 | > 50 | > 50 | > 50 | > 50 |  |  |  |  |  |  |  |  |  |  | 
O=c1[nH]c(=O)n([C@H]2C[C@H](O)[C@@H](CO)O2)cc1C#CCCCCCCCCCBr | 97 | 2.5 | 50 | 16 | 1.1 | 0.8 |  |  |  |  |  |  |  |  | 
O=c1nc2oc(CCCCCCCCCF)cc2cn1[C@H]1C[C@H](O)[C@@H](CO)O1 | 200 | > 20 | > 50 | > 20 | 0.022 | 0.014 | inactive | inactive | inactive | inactive |  |  |  |  | 
O=c1nc2oc(CCCCCCCCCBr)cc2cn1[C@H]1C[C@H](O)[C@@H](CO)O1 | > 50 | 50 | > 200 | > 50 | 0.026 | 0.031 |  | inactive |  |  | inactive | inactive |  |  | 
O=c1[nH]c(=O)n([C@H]2C[C@H](O)[C@@H](CO)O2)cc1C#CCCCCCCCCCF | 116 | 23 | 200 |  | 26 | 22 |  |  |  |  |  |  | 33 |  | 
O=c1[nH]c(=O)n([C@H]2C[C@H](O)[C@@H](CO)O2)cc1C#CCCCCCCCCCCl | 74 | 9.6 | 200 | 10 | 3.6 | 2.8 |  |  |  |  |  |  |  |  | 
O=c1nc2oc(CCCCCCCCCI)cc2cn1[C@H]1C[C@H](O)[C@@H](CO)O1 | > 200 | > 50 | 50 | > 50 | 0.061 | 0.034 |  | inactive |  |  | inactive | inactive |  |  | 
O=c1[nH]c(=O)n([C@H]2C[C@H](O)[C@@H](CO)O2)cc1C#CCCCCCCCCCI | 68 | 31 | > 50 | 36 | 13 | 6 |  |  |  |  |  |  |  |  | 
Nc1nc2c(ncn2COCCO)c(=O)[nH]1 [ACYCLOVIR] | > 200 |  | > 200 |  |  |  |  |  |  |  |  |  |  |  | 
O=c1nc2oc(CCCCCCCCCCl)cc2cn1[C@H]1C[C@H](O)[C@@H](CO)O1 | 200 | 13 | > 200 | 15 | 0.007 | 0.012 |  | inactive |  |  |  |  |  | inactive | inactive
